Data: ChEMBL document CHEMBL1148630, “Conformationally biased P3 amide replacements of beta-secretase inhibitors” (Bioorg Med Chem Lett, 2006)

Molecular target: Beta-secretase 1 (Homo sapiens, UniProt P56817)
Sequence (P56817 whole entry): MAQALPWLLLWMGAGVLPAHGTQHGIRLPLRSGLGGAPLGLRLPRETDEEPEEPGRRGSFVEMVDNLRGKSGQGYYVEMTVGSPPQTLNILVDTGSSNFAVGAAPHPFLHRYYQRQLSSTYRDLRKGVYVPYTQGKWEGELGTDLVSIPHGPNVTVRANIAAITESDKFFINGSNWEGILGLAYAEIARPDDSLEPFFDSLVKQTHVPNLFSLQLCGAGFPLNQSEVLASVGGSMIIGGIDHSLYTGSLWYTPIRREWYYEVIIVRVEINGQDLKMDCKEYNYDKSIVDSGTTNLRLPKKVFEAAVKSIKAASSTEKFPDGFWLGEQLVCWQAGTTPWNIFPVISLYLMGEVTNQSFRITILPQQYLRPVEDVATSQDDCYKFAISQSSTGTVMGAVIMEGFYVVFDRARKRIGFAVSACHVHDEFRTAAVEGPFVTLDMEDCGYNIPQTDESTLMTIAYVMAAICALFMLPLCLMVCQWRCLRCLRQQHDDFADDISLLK
Description: Inhibition of BACE1 activity

SMILES	IC50 [nM]
CC(C)C(=O)c1cc(C(=O)N[C@@H](Cc2ccccc2)[C@H](O)CNC2CC2)cc(N(C)S(C)(=O)=O)c1	240
CN(c1cc(/C=C/C2CC2)cc(C(=O)N[C@@H](Cc2ccccc2)[C@H](O)CNC2CC2)c1)S(C)(=O)=O	730
CCC(=O)c1cc(C(=O)N[C@@H](Cc2ccccc2)[C@H](O)CNC2CC2)cc(N(C)S(C)(=O)=O)c1	1500
C=C(c1ccccc1)c1cc(C(=O)N[C@@H](Cc2ccccc2)[C@H](O)CNC2CC2)cc(N(C)S(C)(=O)=O)c1	1300
CN(c1cc(Cc2ccccc2)cc(C(=O)N[C@@H](Cc2ccccc2)[C@H](O)CNC2CC2)c1)S(C)(=O)=O	4630
CN(c1cc(C(=O)N[C@@H](Cc2ccccc2)[C@H](O)CNC2CC2)cc(C(=O)C2CCCCC2)c1)S(C)(=O)=O	450
CNC(=O)c1cc(C(=O)N[C@@H](Cc2ccccc2)[C@H](O)CNC2CC2)cc(N(C)S(C)(=O)=O)c1	980
CN(c1cc(CCC2CC2)cc(C(=O)N[C@@H](Cc2ccccc2)[C@H](O)CNC2CC2)c1)S(C)(=O)=O	420
CN(c1cc(C(=O)Cc2ccccc2)cc(C(=O)N[C@@H](Cc2ccccc2)[C@H](O)CNC2CC2)c1)S(C)(=O)=O	1400
CN(c1cc(C(=O)N[C@@H](Cc2ccccc2)[C@H](O)CNC2CC2)cc(C(O)c2ccccc2)c1)S(C)(=O)=O (stereo partly drawn)	5900
CN(c1cc(/C=C\C2CC2)cc(C(=O)N[C@@H](Cc2ccccc2)[C@H](O)CNC2CC2)c1)S(C)(=O)=O	35
CN(c1cc(C(=O)N[C@@H](Cc2ccccc2)[C@H](O)CNC2CC2)cc(C(=O)C2CCCC2)c1)S(C)(=O)=O	180
CN(c1cc(C(=O)N[C@@H](Cc2ccccc2)[C@H](O)CNC2CC2)cc(C(O)Cc2ccccc2)c1)S(C)(=O)=O (stereo partly drawn)	5500
